Assays:
[1] = tested on: Kasumi-1 (acute myeloid leukemia, KIT mutation Asn822Lys); experiment: Calcein AM cytotoxicity assay; type: cell-based; conditions: Homo sapiens, 72 h; Kasumi-1; Calcein AM, three days; read-out: EC50 values (μM) Kasumi-1
From the text: (§1) Cytotoxicity of the compounds is the major property determining their anticancer effect in vivo. One of the parameters used, as the basis for cytotoxicity assays, is the integrity of cytoplasmic membrane of viable cells. For example, a microtiter assay, which uses acetomethoxy derivate of calcein (Calcein AM), is widely used for evaluation of cell proliferation and cytotoxicity. This assay is used in drug screening programs and in chemosensitivity testing. Intracellular esterases of viable cells convert calcein AM to green-fluorescent calcein of which signal corresponds to the number of viable cells in the culture.
(§2) We have been using the following cell lines: MV4-11 (acute myeloid leukemia, FLT3-ITD positive), MOLM-13 (acute myeloid leukemia, FLT3-ITD positive), THP-1 (acute myeloid leukemia, wt FLT3), U937 (monocytic leukemia, wt FLT3), EOL-1 (eosinophilic leukaemia, carrying the fusion FIP1L1-PDGFRA), H1703 (non-small cell lung carcinoma, PDGFRA amplification). They were maintained in RPMI-1640 supplemented with 10% fetal bovine serum, penicillin (100 U/ml) and streptomycin (100 μg/ml). Kasumi-1 (acute myeloid leukemia, KIT mutation Asn822Lys) cells were cultivated in RPMI-1640 supplemented with 15% fetal bovine serum, penicillin (100 U/ml) and streptomycin (100 μg/ml). K562 and MCF-7 cell lines were maintained in DMEM supplemented with 10% fetal bovine serum, penicilin (100 U/ml) and streptomycin (100 μg/ml). All cell lines were cultivated at 37° C. in 5% CO2. For cytotoxicity assays, cells were seeded in appropriate densities into 96 well plates and the next day tested compounds were added at various concentrations in triplicates. Three days after drug addition, Calcein AM solution (final concentration 1 μg/ml; Thermo Scientific, USA) was added into each well and incubated for 1 h. After this incubation period, fluorescence of the live cells was measured at 485 nm/538 nm (ex/em) with a Fluoroskan Ascent microplate reader (Labsystems).

[2] = tested on: THP-1 (acute myeloid leukemia, wt FLT3); experiment: Calcein AM cytotoxicity assay; type: cell-based; conditions: Homo sapiens, 72 h; THP-1; Calcein AM, three days; read-out: EC50 values (μM) THP-1
From the text: as §1
as §2, with “They were maintained in RPMI-1640 supplemented with 10% fetal bovine serum, penicillin (100 U/ml) and streptomycin (100 μg/ml). Kasumi-1 (acute myeloid leukemia, KIT mutation Asn822Lys) cells were cultivated in RPMI-1640 supplemented with 15% fetal bovine serum, penicillin (100 U/ml) and streptomycin (100 μg/ml).” left out, “h.” for “h. After this incubation period, fluorescence of the live cells was measured at 485 nm/538 nm (ex/em) with a Fluoroskan Ascent microplate reader (Labsystems).”

[3] = tested on: MOLM-13 (acute myeloid leukemia, FLT3-ITD positive); experiment: Calcein AM cytotoxicity assay; type: cell-based; conditions: Homo sapiens, 72 h; MOLM-13; Calcein AM, three days; read-out: EC50 values (μM) MOLM-13
From the text: as §1
as §2, with “They were maintained in RPMI-1640 supplemented with 10% fetal bovine serum, penicillin (100 U/ml) and streptomycin (100 μg/ml). Kasumi-1 (acute myeloid leukemia, KIT mutation Asn822Lys) cells were cultivated in RPMI-1640 supplemented with 15% fetal bovine serum, penicillin (100 U/ml) and streptomycin (100 μg/ml).” left out, “h.” for “h. After this incubation period, fluorescence of the live cells was measured at 485 nm/538 nm (ex/em) with a Fluoroskan Ascent microplate reader (Labsystems).”

[4] = tested on: EOL-1 (eosinophilic leukaemia, carrying the fusion FIP1L1-PDGFRA); experiment: Calcein AM cytotoxicity assay; type: cell-based; conditions: Homo sapiens, EOL1, 72 h; EOL-1; Calcein AM, three days; read-out: EC50 values (μM) EOL-1
From the text: as §1
as §2, with “They were maintained in RPMI-1640 supplemented with 10% fetal bovine serum, penicillin (100 U/ml) and streptomycin (100 μg/ml). Kasumi-1 (acute myeloid leukemia, KIT mutation Asn822Lys) cells were cultivated in RPMI-1640 supplemented with 15% fetal bovine serum, penicillin (100 U/ml) and streptomycin (100 μg/ml).” left out, “h.” for “h. After this incubation period, fluorescence of the live cells was measured at 485 nm/538 nm (ex/em) with a Fluoroskan Ascent microplate reader (Labsystems).”

K562 = experiment: Calcein AM cytotoxicity assay; type: cell-based; conditions: Homo sapiens, 72 h; K562; Calcein AM, three days; read-out: EC50 values (μM) K562
From the text: as §1
as §2, with “They were maintained in RPMI-1640 supplemented with 10% fetal bovine serum, penicillin (100 U/ml) and streptomycin (100 μg/ml). Kasumi-1 (acute myeloid leukemia, KIT mutation Asn822Lys) cells were cultivated in RPMI-1640 supplemented with 15% fetal bovine serum, penicillin (100 U/ml) and streptomycin (100 μg/ml).” left out, “h.” for “h. After this incubation period, fluorescence of the live cells was measured at 485 nm/538 nm (ex/em) with a Fluoroskan Ascent microplate reader (Labsystems).”

MCF-7 = experiment: Calcein AM cytotoxicity assay; type: cell-based; conditions: Homo sapiens, MCF7, 72 h; MCF-7; Calcein AM, three days; read-out: EC50 values (μM) MCF-7
From the text: as §1
as §2, with “They were maintained in RPMI-1640 supplemented with 10% fetal bovine serum, penicillin (100 U/ml) and streptomycin (100 μg/ml). Kasumi-1 (acute myeloid leukemia, KIT mutation Asn822Lys) cells were cultivated in RPMI-1640 supplemented with 15% fetal bovine serum, penicillin (100 U/ml) and streptomycin (100 μg/ml).” left out, “h.” for “h. After this incubation period, fluorescence of the live cells was measured at 485 nm/538 nm (ex/em) with a Fluoroskan Ascent microplate reader (Labsystems).”

[5] = tested on: MV4-11 (acute myeloid leukemia, FLT3-ITD positive); experiment: Calcein AM cytotoxicity assay; type: cell-based; conditions: Homo sapiens, 72 h; MV4-11; Calcein AM, three days after drug addition; read-out: EC50 values (μM) MV4-11
From the text: as §1
as §2, with “They were maintained in RPMI-1640 supplemented with 10% fetal bovine serum, penicillin (100 U/ml) and streptomycin (100 μg/ml). Kasumi-1 (acute myeloid leukemia, KIT mutation Asn822Lys) cells were cultivated in RPMI-1640 supplemented with 15% fetal bovine serum, penicillin (100 U/ml) and streptomycin (100 μg/ml).” left out, “h.” for “h. After this incubation period, fluorescence of the live cells was measured at 485 nm/538 nm (ex/em) with a Fluoroskan Ascent microplate reader (Labsystems).”

[6] = tested on: U937 (monocytic leukemia, wt FLT3); experiment: Calcein AM cytotoxicity assay; type: cell-based; conditions: Homo sapiens, U-937, 72 h; U937; Calcein AM, three days; read-out: EC50 values (μM) U937
From the text: as §1
as §2, with “They were maintained in RPMI-1640 supplemented with 10% fetal bovine serum, penicillin (100 U/ml) and streptomycin (100 μg/ml). Kasumi-1 (acute myeloid leukemia, KIT mutation Asn822Lys) cells were cultivated in RPMI-1640 supplemented with 15% fetal bovine serum, penicillin (100 U/ml) and streptomycin (100 μg/ml).” left out, “h.” for “h. After this incubation period, fluorescence of the live cells was measured at 485 nm/538 nm (ex/em) with a Fluoroskan Ascent microplate reader (Labsystems).”

FLT3 WT = target: T1, FLT3 WT (Homo sapiens, UniProt P36888); experiment: Kinase inhibition assay with [γ-33P]ATP; type: biochemical; conditions: AGLT substrate, 1 μM ATP
T1 construct: purchased ProQinase GmbH
T1 sequence (P36888 27-993): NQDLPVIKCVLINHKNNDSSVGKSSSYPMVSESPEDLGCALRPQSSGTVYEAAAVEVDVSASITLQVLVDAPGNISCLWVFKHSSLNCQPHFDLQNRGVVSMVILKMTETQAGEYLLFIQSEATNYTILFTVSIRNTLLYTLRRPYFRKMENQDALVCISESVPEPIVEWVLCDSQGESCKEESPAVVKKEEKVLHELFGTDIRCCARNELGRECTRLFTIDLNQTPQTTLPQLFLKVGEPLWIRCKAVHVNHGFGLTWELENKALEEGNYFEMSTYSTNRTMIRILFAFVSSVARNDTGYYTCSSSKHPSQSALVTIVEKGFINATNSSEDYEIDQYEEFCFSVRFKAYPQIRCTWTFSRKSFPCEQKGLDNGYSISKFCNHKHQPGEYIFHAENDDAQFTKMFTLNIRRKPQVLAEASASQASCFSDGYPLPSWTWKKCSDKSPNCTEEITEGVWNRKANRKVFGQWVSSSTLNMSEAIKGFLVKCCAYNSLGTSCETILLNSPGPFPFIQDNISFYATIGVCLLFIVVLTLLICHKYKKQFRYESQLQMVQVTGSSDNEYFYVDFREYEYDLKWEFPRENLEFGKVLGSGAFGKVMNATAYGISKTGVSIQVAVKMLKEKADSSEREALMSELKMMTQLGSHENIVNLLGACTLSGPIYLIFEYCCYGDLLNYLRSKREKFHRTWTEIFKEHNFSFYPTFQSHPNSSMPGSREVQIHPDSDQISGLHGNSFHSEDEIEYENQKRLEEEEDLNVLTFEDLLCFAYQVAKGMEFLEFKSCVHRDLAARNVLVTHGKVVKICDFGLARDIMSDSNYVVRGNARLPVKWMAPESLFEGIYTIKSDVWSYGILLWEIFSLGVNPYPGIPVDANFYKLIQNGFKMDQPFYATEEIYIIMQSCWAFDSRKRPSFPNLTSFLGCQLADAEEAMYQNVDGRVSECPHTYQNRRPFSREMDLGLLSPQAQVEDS
Description: (§3) CDK1/Cyclin B and CDK2/Cyclin E kinases were produced in Sf9 insect cells via baculoviral infection and purified on a NiNTA column (Qiagen). CDK5/p35 and CDK7Cyclin H/MAT1, FLT3 WT, FLT3-ITD and FLT3 D835 were purchased from ProQinase GmbH. The kinase reactions were assayed with 1 mg/mL histone H1 (for CDK1, CDK2 and CDK5), (YSPTSPS)2KK peptide (for CDK7) or AGLT substrate (for FLT3) in the presence of 15/15/0.15/1.5/1 μM ATP (for CDK1/CDK2/CDK5/CDK7/FLT3), 0.05 μCi [γ-^33P]ATP and of the test compound in a final volume of 10 μL, all in a reaction buffer (60 mM HEPES-NaOH, pH 7.5, 3 mM MgCl2, 3 mM MnCl2, 3 μM Na-orthovanadate, 1.2 mM DTT, 2.5 μg/50 μl PEG20,000). The reactions were stopped by adding 5 μL of 3% aq H3PO4. Aliquots were spotted onto P-81 phosphocellulose (Whatman), washed 3× with 0.5% aq H3PO4 and finally air-dried.

CDK1/Cyclin B = target: T2, CDK1/Cyclin B (Homo sapiens, UniProt P06493); experiment: Kinase inhibition assay with [γ-33P]ATP; type: biochemical; conditions: histone H1, 15 μM ATP
T2 construct: made in house; host or cells: Sf9 insect cells, baculoviral infection
Description: as §3

CDK5/p35 = target: T3, CDK5/p35 (Homo sapiens, UniProt Q00535); experiment: Kinase inhibition assay with [γ-33P]ATP; type: biochemical; conditions: histone H1, 0.15 μM ATP
T3 construct: purchased ProQinase GmbH
Description: as §3

CDK2/Cyclin E = target: T4, CDK2/Cyclin E (Homo sapiens, UniProt P24941); experiment: Kinase inhibition assay with [γ-33P]ATP; type: biochemical; conditions: histone H1, 15 μM ATP; read-out: IC50 values (μM) CDK2
T4 construct: made in house; host or cells: Sf9 insect cells, baculoviral infection
Description: as §3

T3 sequence (Q00535 whole entry): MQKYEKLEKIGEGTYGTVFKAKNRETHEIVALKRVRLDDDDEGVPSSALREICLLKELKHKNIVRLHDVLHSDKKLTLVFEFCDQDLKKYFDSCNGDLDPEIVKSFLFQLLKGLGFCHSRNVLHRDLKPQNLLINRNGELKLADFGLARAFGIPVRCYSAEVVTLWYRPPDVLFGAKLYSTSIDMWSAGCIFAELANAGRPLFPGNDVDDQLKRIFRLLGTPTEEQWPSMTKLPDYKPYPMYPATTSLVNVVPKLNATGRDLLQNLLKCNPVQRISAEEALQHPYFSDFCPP
T3 sequence (Q15078 whole entry partner): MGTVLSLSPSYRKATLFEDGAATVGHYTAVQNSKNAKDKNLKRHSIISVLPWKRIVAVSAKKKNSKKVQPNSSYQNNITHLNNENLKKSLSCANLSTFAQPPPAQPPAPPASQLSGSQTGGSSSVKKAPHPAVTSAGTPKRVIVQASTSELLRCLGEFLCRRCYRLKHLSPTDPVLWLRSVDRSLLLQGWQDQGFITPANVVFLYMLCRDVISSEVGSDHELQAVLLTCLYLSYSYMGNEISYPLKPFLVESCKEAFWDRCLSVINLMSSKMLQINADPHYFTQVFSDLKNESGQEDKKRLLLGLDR
T2 sequence (P06493 whole entry, species assumed): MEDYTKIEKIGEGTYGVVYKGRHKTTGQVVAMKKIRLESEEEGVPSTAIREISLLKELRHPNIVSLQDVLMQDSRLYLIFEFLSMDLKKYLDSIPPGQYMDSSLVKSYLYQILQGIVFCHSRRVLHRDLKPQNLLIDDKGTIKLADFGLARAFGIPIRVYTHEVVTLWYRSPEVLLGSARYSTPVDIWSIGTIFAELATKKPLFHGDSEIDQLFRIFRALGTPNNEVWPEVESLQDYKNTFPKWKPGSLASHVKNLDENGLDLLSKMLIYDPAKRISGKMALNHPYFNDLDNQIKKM
T2 sequence (P14635 whole entry partner, species assumed): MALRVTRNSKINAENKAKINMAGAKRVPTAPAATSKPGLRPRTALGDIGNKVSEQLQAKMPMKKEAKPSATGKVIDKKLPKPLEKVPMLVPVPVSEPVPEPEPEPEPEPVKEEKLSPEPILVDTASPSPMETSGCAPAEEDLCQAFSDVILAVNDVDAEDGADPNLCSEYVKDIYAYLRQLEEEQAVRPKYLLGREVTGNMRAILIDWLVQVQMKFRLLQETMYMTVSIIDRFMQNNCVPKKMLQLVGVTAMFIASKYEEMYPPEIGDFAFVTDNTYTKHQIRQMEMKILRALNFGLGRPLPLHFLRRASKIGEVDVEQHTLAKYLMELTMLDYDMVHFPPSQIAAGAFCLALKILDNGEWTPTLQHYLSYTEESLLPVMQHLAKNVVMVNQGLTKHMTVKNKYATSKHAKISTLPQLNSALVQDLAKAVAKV

IC50 (FLT3 WT) [µM]	IC50 (CDK1/Cyclin B) [µM]	IC50 (CDK5/p35) [µM]	IC50 (CDK2/Cyclin E) [µM]	SMILES	EC50 [1] [µM]	EC50 [2] [µM]	EC50 [3] [µM]	EC50 [4] [µM]	EC50 (K562) [µM]	EC50 (MCF-7) [µM]	EC50 [5] [µM]	EC50 [6] [µM]
0.021	6.16	8.16	3.56	NCCCCCCNc1nc(Nc2ccc(CN3CCOCC3)cc2)c2ncn(C3CCCC3)c2n1 [Compound 38]	1.23	3.59	0.064	0.276	4.57	5.55	0.086	2.92
0.025	6.05	3.71	2.04	NCCCCCNc1nc(Nc2ccc(CN3CCOCC3)cc2)c2ncn(C3CCCC3)c2n1 [Compound 267]	1.25	2.42	0.02	0.071	1.79	2.27	0.032	3.63

Source: patent publication US11028087B2, “2,6-disubstituted-9-cyclopentyl-9H-purines, use thereof as medicaments, and pharmaceutical compositions” (UNIVERZITA PALACKEHO V OLOMOUCI, priority 2017, dated 2021)
